SMILES strings stand for the structures.

The first assay concerns MCH receptors. In words: MCH receptor activity class (method not given). Conditions: MCH receptor activity class 1-3 (percent of control at 10^-7 M or IC50).
`CN(C)c1ccnc(N[C@H]2CC[C@@H](CNC(=O)Nc3c(F)cc(Br)cc3Br)CC2)n1` [compound 2417]: the class is reported as 1 (Class 1: The value of percent of control at 10^−7 M was less than 40% or the value of IC50 was less than 50 nM.).

As for `CN(C)c1nc(N[C@H]2CC[C@@H](CNC(=O)Nc3ccccc3C(F)(F)F)CC2)nc2c1CCCC2` [compound 2458], the class is reported as 3 (Class 3 The value of percent of control at 10^−7 M was more than 60% or the value of IC50 was more than 200 nM.).

The same assay, now with this note: MCH receptor; class by percent of control at 10^-7 M or IC50.
Regarding `CN(C)c1nc(N[C@H]2CC[C@@H](NC(=S)Nc3c(F)cc(F)cc3F)CC2)nc2c1CCCC2` [compound 2001], the class is 3 (Class 3 The value of percent of control at 10^−7 M was more than 60% or the value of IC50 was more than 200 nM.).

For `CCCN(CCC)S(=O)(=O)c1ccc(C(=O)N[C@H]2CC[C@@H](Nc3cc(N(C)C)c4ccccc4n3)CC2)cc1` [compound 138], the class is on record as 3 (Class 3 The value of percent of control at 10^−7 M was more than 60% or the value of IC50 was more than 200 nM.).

As to `CN(C)c1nc(N[C@H]2CC[C@@H](NC(=S)Nc3ccc(Br)cc3F)CC2)nc2c1CCCC2` [compound 1991], the class was 3 (Class 3 The value of percent of control at 10^−7 M was more than 60% or the value of IC50 was more than 200 nM.).

Turning to `CC(=O)OC(C(=O)N[C@H]1CC[C@@H](Nc2cc(N(C)C)c3ccccc3n2)CC1)c1ccccc1` (relative stereo) [compound 92], the class is 3 (Class 3 The value of percent of control at 10^−7 M was more than 60% or the value of IC50 was more than 200 nM.).

For `CN(C)c1cc(N[C@H]2CC[C@@H](NC(=O)Cc3cccs3)CC2)nc2ccccc12` [compound 53], the class was 3 (Class 3 The value of percent of control at 10^−7 M was more than 60% or the value of IC50 was more than 200 nM.).

For the compound `CN(C)c1nc(N[C@H]2CC[C@@H](NC(=S)NC3CC3)CC2)nc2c1CCCC2` [compound 2029], the class is 3 (Class 3 The value of percent of control at 10^−7 M was more than 60% or the value of IC50 was more than 200 nM.).

Staying with this assay, now noted: activity class 1-3: percent of control at 10^-7 M or IC50.
For `CN(C)c1ccnc(N[C@H]2CC[C@@H](CNCCCCCCCCc3ccccc3)CC2)n1` [compound 1528], the class is listed as 3 (Class 3 The value of percent of control at 10^−7 M was more than 60% or the value of IC50 was more than 200 nM.).

Regarding `Cc1ccc(OC(=O)NC[C@H]2CC[C@@H](Nc3nccc(N(C)C)n3)CC2)cc1` [compound 1654], the class was 3 (Class 3 The value of percent of control at 10^−7 M was more than 60% or the value of IC50 was more than 200 nM.).

`CN(C)c1ccnc(NC2CCC(CNC(=O)OCc3ccc([N+](=O)[O-])cc3)CC2)n1` (stereo not drawn) [compound 1648]: the class was 3 (Class 3 The value of percent of control at 10^−7 M was more than 60% or the value of IC50 was more than 200 nM.).

Still in this assay, the particulars now being: class 1-3 by percent of control at 10^-7 M or IC50.
Consider `CC(Oc1ccccc1)C(=O)N[C@H]1CC[C@@H](Nc2nc3c(c(N(C)C)n2)CCCC3)CC1` (relative stereo) [compound 485], for which the class is 1 (Class 1: The value of percent of control at 10^−7 M was less than 40% or the value of IC50 was less than 50 nM.).

Consider `CN(C)c1ccnc(N[C@H]2CC[C@@H](CNC(=O)c3c(F)ccc(F)c3F)CC2)n1` [compound 445], for which the class was 3 (Class 3 The value of percent of control at 10^−7 M was more than 60% or the value of IC50 was more than 200 nM.).

In the case of `CCCN(CCC)S(=O)(=O)c1ccc(C(=O)N[C@H]2CC[C@@H](Nc3nc4c(c(N(C)C)n3)CCCC4)CC2)cc1` [compound 574], the class is 3 (Class 3 The value of percent of control at 10^−7 M was more than 60% or the value of IC50 was more than 200 nM.).

Turning to `Cc1ccc(C(=O)N[C@H]2CC[C@@H](Nc3nc4c(c(N(C)C)n3)CCCC4)CC2)cc1F` [compound 510], the class was 2 (Class 2: The value of percent of control at 10^−7 M was from 40% to 60% or the value of IC′50 was from 50 nM to 200 nM.).

Staying with this assay, now noted: class by percent of control at 10^-7 M or IC50.
For `COc1ccc(F)cc1CNC[C@H]1CC[C@@H](Nc2nc3c(c(N(C)C)n2)CCCC3)CC1` [compound 1415], the class is recorded as 3 (Class 3 The value of percent of control at 10^−7 M was more than 60% or the value of IC50 was more than 200 nM.).

For the compound `CN(C)c1cc(N[C@H]2CC[C@@H](NC(=S)Nc3ccc(Cl)cc3Cl)CC2)nc2ccccc12` [compound 2169], the class is 3 (Class 3 The value of percent of control at 10^−7 M was more than 60% or the value of IC50 was more than 200 nM.).

For `CN(C)c1ccnc(N[C@H]2CC[C@@H](NC(=O)c3cc(C(F)(F)F)cc(C(F)(F)F)c3)CC2)n1` [compound 296, N-(cis-4-{[4-(dimethylamino)pyrimidin-2-yl]amino}cyclohexyl)-3,5-bis(trifluoromethyl)benzamide], the class was 1 (Class 1: The value of percent of control at 10^−7 M was less than 40% or the value of IC50 was less than 50 nM.).

For the compound `CC(Oc1ccccc1)C(=O)N[C@H]1CC[C@@H](Nc2nccc(N(C)C)n2)CC1` (relative stereo) [compound 267], the class is 3 (Class 3 The value of percent of control at 10^−7 M was more than 60% or the value of IC50 was more than 200 nM.).

Consider `CN(C)c1ccnc(N[C@H]2CC[C@@H](NC(=O)C(CC(=O)c3ccc(C(C)(C)C)cc3)c3cn(C)c4ccccc34)CC2)n1` (relative stereo) [compound 861], for which the class was 3 (Class 3 The value of percent of control at 10^−7 M was more than 60% or the value of IC50 was more than 200 nM.).

Regarding `CN(C)c1ccnc(N[C@H]2CC[C@@H](NC(=O)c3cc4ccccc4s3)CC2)n1` [compound 312], the class is reported as 3 (Class 3 The value of percent of control at 10^−7 M was more than 60% or the value of IC50 was more than 200 nM.).

`COc1ccc(OC)c(NC(=O)N[C@H]2CC[C@@H](Nc3nc4c(c(N(C)C)n3)CCCC4)CC2)c1` [compound 1849, N-(2,5-dimethoxyphenyl)-N′-(cis-4-{[4-(dimethylamino)-5,6,7,8-tetrahydroquinazolin-2-yl]amino}cyclohexyl)urea]: the class was 2 (Class 2: The value of percent of control at 10^−7 M was from 40% to 60% or the value of IC′50 was from 50 nM to 200 nM.).

Take `COc1cc(OC)c(CNC[C@H]2CC[C@@H](Nc3nccc(N(C)C)n3)CC2)cc1Br` [compound 1265]: the class is on record as 1 (Class 1: The value of percent of control at 10^−7 M was less than 40% or the value of IC50 was less than 50 nM.).

Take `CN(C)c1ccnc(N[C@H]2CC[C@@H](NC(=O)c3ccc4ncsc4c3)CC2)n1` [compound 918]: the class is reported as 3 (Class 3 The value of percent of control at 10^−7 M was more than 60% or the value of IC50 was more than 200 nM.).

Take `COc1cc([N+](=O)[O-])ccc1C(=O)N[C@H]1CC[C@@H](Nc2nccc(N(C)C)n2)CC1` [compound 910]: the class is 3 (Class 3 The value of percent of control at 10^−7 M was more than 60% or the value of IC50 was more than 200 nM.).

On to `COc1ccc(Br)cc1CNC[C@H]1CC[C@@H](Nc2nccc(N(C)C)n2)CC1` [compound 1266], for which the class is reported as 1 (Class 1: The value of percent of control at 10^−7 M was less than 40% or the value of IC50 was less than 50 nM.).

As to `CN(C)c1cc(N[C@H]2CC[C@@H](CNC(=O)Cc3ccccc3I)CC2)nc2ccccc12` [compound 796], the class is on record as 3 (Class 3 The value of percent of control at 10^−7 M was more than 60% or the value of IC50 was more than 200 nM.).

`CCc1ccc(CNC[C@H]2CC[C@@H](Nc3cc(N(C)C)c4ccccc4n3)CC2)s1` [compound 1157]: the class was 3 (Class 3 The value of percent of control at 10^−7 M was more than 60% or the value of IC50 was more than 200 nM.).

Staying with this assay, now noted: class by percent of control at 10^−7 M or IC50.
As to `Cc1cnc(N[C@H]2CC[C@@H](NC(=O)c3ccc(F)c(C(F)(F)F)c3)CC2)nc1N(C)C` [compound 2919], the class was 1 (Class 1: The value of percent of control at 10^−7 M was less than 40% or the value of IC50 was less than 50 nM.).

As to `Cc1cnc(N[C@H]2CC[C@@H](CNC(=O)c3ccc(Br)cc3)CC2)nc1N(C)C` [compound 2702], the class is on record as 1 (Class 1: The value of percent of control at 10^−7 M was less than 40% or the value of IC50 was less than 50 nM.).

Regarding `Cc1cnc(N[C@H]2CC[C@@H](C(=O)N[C@@H](C)c3ccc(F)cc3)CC2)nc1N(C)C` [compound 2774, cis-4-{[4-(dimethylamino)-5-methylpyrimidin-2-yl]amino}-N-[(1S)-1-(4-fluorophenyl)ethyl]cyclohexanecarboxamide], the class is given as 2 (Class 2: The value of percent of control at 10^−7 M was from 40% to 60% or the value of IC′50 was from 50 nM to 200 nM.).

In the case of `Cc1cc(N(C)C)nc(N[C@H]2CC[C@@H](NC(=O)c3ccc(C(F)(F)F)cc3)CC2)n1` [compound 2972, N-(cis-4-{[4-(dimethylamino)-6-methylpyrimidin-2-yl]amino}cyclohexyl)-4-(trifluoromethyl)benzamide], the class is recorded as 2 (Class 2: The value of percent of control at 10^−7 M was from 40% to 60% or the value of IC′50 was from 50 nM to 200 nM.).

`Cc1cccc(CNC(=O)[C@H]2CC[C@@H](Nc3nc(C)cc(N(C)C)n3)CC2)c1` [compound 2822, cis-4-{[4-(dimethylamino)-6-methylpyrimidin-2-yl]amino}-N-(3-methylbenzyl)cyclohexanecarboxamide]: the class is 1 (Class 1: The value of percent of control at 10^−7 M was less than 40% or the value of IC50 was less than 50 nM.).

Take `Cc1cnc(NC[C@H]2CC[C@@H](NC(=O)c3ccc(C#N)cc3)CC2)nc1N(C)C` [compound 2723]: the class was 3 (Class 3 The value of percent of control at 10^−7 M was more than 60% or the value of IC50 was more than 200 nM.).

As for `Cc1cc(N(C)C)nc(N[C@H]2CC[C@@H](NC(=O)c3cc(F)cc(C(F)(F)F)c3)CC2)n1` [compound 2962, N-(cis-4-{[4-(dimethylamino)-6-methylpyrimidin-2-yl]amino}cyclohexyl)-3-fluoro-5-(trifluoromethyl)benzamide], the class is 1 (Class 1: The value of percent of control at 10^−7 M was less than 40% or the value of IC50 was less than 50 nM.).

With `Cc1cc(N(C)C)nc(NC[C@H]2CC[C@@H](NC(=O)c3cccc(OC(F)(F)F)c3)CC2)n1` [compound 2741], the class is given as 3 (Class 3 The value of percent of control at 10^−7 M was more than 60% or the value of IC50 was more than 200 nM.).

(Values after patent US20050197350A1, “Novel quinoline, tetrahydroquinazoline, and pyrimidine derivatives and methods of treatment related to the use thereof” (TAISHO PHARMACEUTICAL CO., LTD., priority 2003, published 2005).)
